The CheMixHub viscosity set

Test: xn = mol fraction of the nth substance listed
Conditions: 101 kPa

CC(C)=O + O
Conditions	viscosity [mPa·s]
293.15 K, x1 = 0.047	1.328
293.15 K, x1 = 0.095	1.549
293.15 K, x1 = 0.124	1.586
293.15 K, x1 = 0.152	1.588
293.15 K, x1 = 0.192	1.504
293.15 K, x1 = 0.328	1.129
293.15 K, x1 = 0.49	0.746
293.15 K, x1 = 0.687	0.497
293.15 K, x1 = 0.85	0.404
298.15 K, x1 = 0.0201	1.047
298.15 K, x1 = 0.2	1.343
298.15 K, x1 = 0.4	0.88
298.15 K, x1 = 0.6	0.543
298.15 K, x1 = 0.8	0.372
303.15 K, x1 = 0.047	1.027
303.15 K, x1 = 0.095	1.179
303.15 K, x1 = 0.124	1.214
303.15 K, x1 = 0.152	1.212
303.15 K, x1 = 0.192	1.148
303.15 K, x1 = 0.328	0.901
303.15 K, x1 = 0.49	0.625
303.15 K, x1 = 0.687	0.435
303.15 K, x1 = 0.85	0.367
308.15 K, x1 = 0.0499	0.9532
308.15 K, x1 = 0.0702	1.015
308.15 K, x1 = 0.1	1.064
308.15 K, x1 = 0.12	1.08
308.15 K, x1 = 0.1499	1.084
308.15 K, x1 = 0.1701	1.069
308.15 K, x1 = 0.1999	1.039
308.15 K, x1 = 0.22	1.012
308.15 K, x1 = 0.2499	0.9681
308.15 K, x1 = 0.2701	0.9345
308.15 K, x1 = 0.3001	0.8823
308.15 K, x1 = 0.3499	0.7933
308.15 K, x1 = 0.4	0.7101
308.15 K, x1 = 0.4502	0.6353
308.15 K, x1 = 0.5001	0.5698
308.15 K, x1 = 0.6	0.4627
308.15 K, x1 = 0.7	0.3849
308.15 K, x1 = 0.7999	0.3262
308.15 K, x1 = 0.9	0.2729
313.15 K, x1 = 0.0201	0.7526
313.15 K, x1 = 0.047	0.826
313.15 K, x1 = 0.0499	0.8529
313.15 K, x1 = 0.0702	0.9032
313.15 K, x1 = 0.095	0.929
313.15 K, x1 = 0.1	0.9489
313.15 K, x1 = 0.12	0.961
313.15 K, x1 = 0.124	0.945
313.15 K, x1 = 0.1499	0.9659
313.15 K, x1 = 0.152	0.955
313.15 K, x1 = 0.1701	0.9492
313.15 K, x1 = 0.192	0.908
313.15 K, x1 = 0.1999	0.9232
313.15 K, x1 = 0.22	0.9029
313.15 K, x1 = 0.2499	0.8658
313.15 K, x1 = 0.2701	0.8358
313.15 K, x1 = 0.3001	0.792
313.15 K, x1 = 0.328	0.737
313.15 K, x1 = 0.3499	0.7155
313.15 K, x1 = 0.4	0.6429
313.15 K, x1 = 0.4502	0.5785
313.15 K, x1 = 0.49	0.536
313.15 K, x1 = 0.5001	0.5234
313.15 K, x1 = 0.6	0.4276
313.15 K, x1 = 0.687	0.386
313.15 K, x1 = 0.7	0.361
313.15 K, x1 = 0.7999	0.302
313.15 K, x1 = 0.85	0.333
313.15 K, x1 = 0.9	0.2597
318.15 K, x1 = 0.0201	0.6793
318.15 K, x1 = 0.0499	0.7678
318.15 K, x1 = 0.0702	0.8166
318.15 K, x1 = 0.1	0.8463
318.15 K, x1 = 0.12	0.8495
318.15 K, x1 = 0.1499	0.8555
318.15 K, x1 = 0.1701	0.8465
318.15 K, x1 = 0.1999	0.8249
318.15 K, x1 = 0.22	0.8044
318.15 K, x1 = 0.2499	0.7773
318.15 K, x1 = 0.2701	0.7529
318.15 K, x1 = 0.3001	0.7134
318.15 K, x1 = 0.3499	0.6478
318.15 K, x1 = 0.4	0.5851
318.15 K, x1 = 0.4502	0.5251
318.15 K, x1 = 0.5001	0.476
318.15 K, x1 = 0.6	0.3869
318.15 K, x1 = 0.7	0.3317
318.15 K, x1 = 0.7999	0.2774
318.15 K, x1 = 0.9	0.2431
323.15 K, x1 = 0.047	0.746
323.15 K, x1 = 0.095	0.834
323.15 K, x1 = 0.124	0.853
323.15 K, x1 = 0.152	0.859
323.15 K, x1 = 0.192	0.808
323.15 K, x1 = 0.328	0.682
323.15 K, x1 = 0.49	0.499
323.15 K, x1 = 0.687	0.367
323.15 K, x1 = 0.85	0.32
